Holding throughout (assay): NCI anticancer screen, dose series, 48 h
In test [1] the test system is OVCAR-3 ovarian.
Test [2] has as its system KM12 colon.
Test [3] has as its system HT29 colon.
Test [4] relates to HCT-116 colon.
Test [5] deals with OVCAR-4 ovarian.
In test [6] the test system is U251 CNS.
The subject of test [7] is MOLT-4 leukemia.
In test [8] the test system is M14 melanoma.
Test [9] concerns MDA-MB-231 breast.
The subject of test [10] is HOP-62 NSCLC.

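Where inhibition never reached the appropriate level, the endpoint shown equals the highest concentration tested. Otherwise, values were interpolated linearly from a five-concentration, 48-hour dose response in 96-well plates. GI50: concentration for 50% inhibition of growth. TGI marks complete inhibition of growth.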

Turning to `C=C1C(=O)OC2C1CC(OC(C)=O)/C(C)=C/CCC1(C)OC21` (stereo not drawn), the TGI in [1], in [2], in test [3], in test [4], in test [5] and in test [6] was greater than 100 µM each time. For the same compound, the TGI in test [7], in test [8] and in [9] was greater than 100 µM throughout.
With `CC(=O)NC1CONC1=O` (stereo not drawn), the TGI in [1], in test [2], in test [3], in [4], in test [10] and in test [5] was greater than 100 µM in each case. Also, the TGI in [6], in test [7], in test [8] and in test [9] was greater than 100 µM each time.
With `CNCCn1c(=O)c2cc(OC)c(OC)cc2c2cnc3cc4c(cc3c21)OCO4`, the GI50 in test [1] was 0.0393 µM; in test [2], 0.0483 µM; in test [3], 0.0119 µM; in test [4] it was less than 0.01 µM; in test [10], less than 0.01 µM; in test [5], 0.0347 µM. Moreover, the GI50 was less than 0.01 µM in test [6], less than 0.01 µM in test [7], less than 0.01 µM in [8] and 0.19 µM in test [9]. The TGI was 2.02 µM in test [1]; 1.6 µM in test [2]; 0.11 µM in [3]; 0.135 µM in test [4]; 1.61 µM in [10]; 2.21 µM in test [5]. For the same compound, the TGI in [6] was 0.0242 µM; in test [7], 0.0303 µM; in test [8], 1.36 µM; in test [9], 1.67 µM.
As for `COc1ccc(-c2cc(-c3ccc(Nc4ccnc5cc(Cl)ccc45)cc3)nc(N3CCOCC3)n2)cc1`, the GI50 in [3] was 3.28 µM; in [4], 2.96 µM; in test [5], 1.83 µM; in test [8], 2.81 µM; in test [9], 7.52 µM. The TGI in test [3] was greater than 100 µM; in test [4], greater than 100 µM; in [5] it was 3.57 µM; in [8], greater than 100 µM; in test [9], greater than 100 µM.
With `Cn1cc(S(=O)(=O)N2CCC3=Cc4c(cnn4-c4ccc(F)cc4)C[C@]3(C(=O)c3cc(C(F)(F)F)ccn3)C2)cn1`, the GI50 in test [1] was greater than 100 µM; in test [2], 75.8 µM; in test [3] it was 89.7 µM; in [4], 11.1 µM; in test [10], 43 µM; in test [5] it was greater than 100 µM. Further, the GI50 in [6], in [7], in [8] and in [9] was greater than 100 µM throughout. Besides, the TGI in test [1], in test [2], in [3], in [4], in test [10] and in [5] was greater than 100 µM in each case. The TGI in test [6], in test [7], in test [8] and in test [9] was greater than 100 µM in each case.
In the case of `CC(C)(C)c1cc(C(=O)/C=C/c2ccc(C(=O)O)cc2)cc(C(C)(C)C)c1`, the TGI came out at 7.31 µM in [1]; 5.75 µM in test [2]; 13.2 µM in test [3]; 10.4 µM in test [4]; 6.49 µM in test [10]; 19 µM in test [5]. For the same compound, the TGI in test [6] was 11.2 µM; in test [7], 8.31 µM; in test [8], 3.89 µM; in test [9], 13 µM.
On to `NCCCOc1cc(Cl)ccc1NC(=O)c1cc2ccccc2cc1OCCCN`, for which the GI50 in test [1] was 1.32 µM; in test [2], 1.48 µM; in test [3], 1.62 µM; in test [4] it was 1.37 µM; in test [10] it was 1.26 µM; in test [5], 1.51 µM. In addition, the GI50 was 1.71 µM in [6], 1.51 µM in [7] and 1.19 µM in test [9]. Besides, the TGI in test [1] amounted to 2.65 µM; in test [2], 2.91 µM; in test [3] it was 4.16 µM; in [4], 2.8 µM; in test [10] it was 2.59 µM; in [5], 2.91 µM. Besides, the TGI in test [6] stood at 3.24 µM; in test [7] it was 3.25 µM; in test [9], 2.69 µM.
As to `O=C(N/N=C/c1ccc(O)cc1O)c1cccnc1`, the GI50 in test [1] is 0.474 µM; in test [2] it was 3.62 µM; in test [3], 7.52 µM; in [4] it was 0.876 µM; in test [10], 13.4 µM; in test [5] it was 0.692 µM. The GI50 in test [6] was 2.42 µM; in test [7], 3.1 µM; in test [8] it was 2.8 µM; in [9], 3.68 µM. The TGI in test [1] was 29.4 µM; in test [2], greater than 100 µM; in test [3], greater than 100 µM; in [4], greater than 100 µM; in [10], greater than 100 µM; in [5], 11.9 µM. The TGI in test [6] was 41.5 µM; in [7], greater than 100 µM; in [8], 19.6 µM; in test [9], greater than 100 µM.
For the compound `Clc1nc(Cl)c2ncn(Cc3ccccc3Cn3cnc4c(Cl)nc(Cl)nc43)c2n1`, the GI50 in [1] was 1.47 µM; in test [2], 2.23 µM; in test [3], 2.13 µM; in test [4], 2.06 µM; in [10], 9.11 µM; in [5], 2 µM. In addition, the GI50 in test [6] is 2.05 µM; in [7], 1.99 µM; in test [8], 5.13 µM; in test [9] it was 1.55 µM. Moreover, the TGI worked out at 2.85 µM in [1]; 5.37 µM in test [2]; 5.98 µM in test [4]; 19.3 µM in test [10]; 4.05 µM in [5]; 4.63 µM in test [6]. Besides, the TGI was 5.13 µM in test [7], 10 µM in test [8] and 3.01 µM in [9].
As to `COc1cc(/C=C/C(=O)C(C(=O)/C=C/c2ccc(OC(=O)CCNC34CC5CC(CC(C5)C3)C4)c(OC)c2)C(=O)CCNC23CC4CC(CC(C4)C2)C3)ccc1OC(=O)CCNC12CC3CC(CC(C3)C1)C2` (stereo not drawn), the GI50 in test [1] is 4.98 µM; in test [2] it was 2.28 µM; in [3], 1.69 µM; in [4] it was 2.94 µM; in test [10], 9.12 µM; in test [5], 8.89 µM. Also, the results for the GI50 in test [6], in test [8] and in test [9] were 3.25 µM, 3.51 µM and 3.99 µM, respectively. Besides, the TGI in test [1] is greater than 100 µM; in test [2] it was 5.96 µM; in test [3], 3.24 µM; in test [4], 10.7 µM; in [10] it was greater than 100 µM; in [5], 57.1 µM. Further, the TGI came to 11.3 µM in test [6], 13.9 µM in test [8] and 26.5 µM in test [9].
For the compound `C=C1C(O)C2C(=C(C)C13CC3)C(=O)C(C)(C)C2OC` (stereo not drawn), the GI50 in test [1], in test [2], in test [3], in [4], in test [10] and in test [5] was greater than 100 µM each time. Besides, the GI50 in test [6] is greater than 100 µM; in test [7], 38.6 µM; in test [9] it was 53.4 µM. Besides, the TGI in [1], in test [2], in test [3], in test [4], in test [10] and in test [5] was greater than 100 µM in each case. Further, the TGI in test [6], in test [7] and in test [9] was greater than 100 µM throughout.
Consider `O=C(NC1CCCCC1)c1ccc(Nc2ncnc3c2cnn3-c2ccccc2)cc1`, for which the GI50 in test [1] was 14.3 µM; in test [2], 57.8 µM; in test [4] it was 4.01 µM; in [10] it was 2.62 µM; in test [7], 75.6 µM; in [8] it was 18.3 µM. Further, in test [9], the GI50 was 5.09 µM. Also, the TGI in test [1] is greater than 100 µM; in test [2], greater than 100 µM; in test [4], greater than 100 µM; in [10], 8.77 µM; in test [7] it was greater than 100 µM; in [8] it was greater than 100 µM. The TGI in test [9] was found to be 21.9 µM.
For the compound `COc1cc(C(=O)O[C@H](C(N)=O)[C@]2(C)CO2)c2cccc(C)c2c1`, the GI50 in [1] was less than 0.0317 µM; in test [3] it was less than 0.0418 µM; in test [4], 0.431 µM; in test [10] it was 2.23 µM; in test [8], 2.13 µM; in test [9], 0.016 µM. The TGI in [1] was 8.21 µM; in test [4], 2.32 µM; in test [10] it was 5.35 µM; in [5], greater than 26 µM; in [8] it was 4.84 µM; in test [9], 1.29 µM.
As for `Cc1sc2c(c1C)C(c1ccc(Cl)cc1)=N[C@@H](CC(=O)Nc1ccc(OCCOCCOCCOCCNc3cccc4c3C(=O)N(C3CCC(=O)NC3=O)C4=O)cc1)c1nnc(C)n1-2` (stereo partly drawn), the GI50 is 0.551 µM in test [1]; 0.314 µM in [3]; less than 0.01 µM in [10]; less than 0.0174 µM in test [5]; 0.476 µM in test [6]; 0.388 µM in test [8]. The GI50 in test [9] is less than 0.0175 µM. The TGI in test [1], in test [2], in test [3], in [4], in test [10] and in [5] was greater than 100 µM in each case. Also, the TGI in [6] was greater than 100 µM; in [8], greater than 100 µM; in test [9], greater than 83.8 µM.
`COc1ccc(/C=C/c2cnccn2)cc1OC`: the TGI in test [1], in [2], in test [3], in [4], in test [10] and in test [5] was greater than 10 µM in each case. For the same compound, the TGI in test [6], in test [8] and in test [9] was greater than 10 µM each time.
As to `NC(=O)CNc1ccc([As]=[As]c2ccc(NCC(N)=O)cc2)cc1` (stereo not drawn), the GI50 was 2.1 µM in test [1]; 13.7 µM in test [2]; 3.64 µM in test [4]; 3.94 µM in test [10]; 2.61 µM in test [5]; 1.57 µM in test [6]. The values for the GI50 in [7], in test [8] and in test [9] were 9.29 µM, 5.02 µM and 3.27 µM, respectively. The TGI was found to be 6.14 µM in [1]; 33.2 µM in [2]; 16.3 µM in test [4]; 14.6 µM in test [10]; 49.7 µM in test [5]; 23.2 µM in test [6]. Further, the figures for the TGI in test [7], in test [8] and in [9] were greater than 100 µM, 20.6 µM and 21 µM, respectively.
Regarding `CCOC(=O)C1=C(Nc2ccc(Br)cc2)OCC1=O`, the TGI in test [1], in [2], in test [3], in [4], in [10] and in test [5] was greater than 100 µM each time. The TGI in test [6], in [7] and in [8] was greater than 100 µM each time.
Take `Cn1cc(-c2csc(-c3cn(C)c4ccc(F)cc34)n2)c2cnccc21`: the GI50 in test [1] is 1.95 µM; in test [2] it was 1.79 µM; in [3], 1.47 µM; in [4], 1.66 µM; in test [10] it was 1.92 µM; in test [5] it was 1.7 µM. The GI50 in [6] is 1.8 µM; in [8], 1.72 µM; in [9] it was 1.75 µM. Also, the TGI in test [1] was 3.48 µM; in test [2] it was 3.36 µM; in test [3], 3 µM; in test [4], 3.06 µM; in test [10] it was 3.49 µM; in [5], 3.16 µM. Further, the values for the TGI in [6], in test [8] and in test [9] were 3.23 µM, 3.21 µM and 3.26 µM, respectively.

These data come from PubChem BioAssay (NCI).
